{"source": "patent US20070037149A1", "about": "“Human calcium transporter 1 gene, screening method of calcium absorption regulating factor, and calcium absorption regulating factor” (priority 2003, published 2007)", "key": {"human CaT1 [1]": {"target": "T1, human CaT1 (Homo sapiens, UniProt Q9H1D0, I526V)", "T1 construct": "expressed in transfected cells", "T1 sequence (Q9H1D0 45-765 I526V)": "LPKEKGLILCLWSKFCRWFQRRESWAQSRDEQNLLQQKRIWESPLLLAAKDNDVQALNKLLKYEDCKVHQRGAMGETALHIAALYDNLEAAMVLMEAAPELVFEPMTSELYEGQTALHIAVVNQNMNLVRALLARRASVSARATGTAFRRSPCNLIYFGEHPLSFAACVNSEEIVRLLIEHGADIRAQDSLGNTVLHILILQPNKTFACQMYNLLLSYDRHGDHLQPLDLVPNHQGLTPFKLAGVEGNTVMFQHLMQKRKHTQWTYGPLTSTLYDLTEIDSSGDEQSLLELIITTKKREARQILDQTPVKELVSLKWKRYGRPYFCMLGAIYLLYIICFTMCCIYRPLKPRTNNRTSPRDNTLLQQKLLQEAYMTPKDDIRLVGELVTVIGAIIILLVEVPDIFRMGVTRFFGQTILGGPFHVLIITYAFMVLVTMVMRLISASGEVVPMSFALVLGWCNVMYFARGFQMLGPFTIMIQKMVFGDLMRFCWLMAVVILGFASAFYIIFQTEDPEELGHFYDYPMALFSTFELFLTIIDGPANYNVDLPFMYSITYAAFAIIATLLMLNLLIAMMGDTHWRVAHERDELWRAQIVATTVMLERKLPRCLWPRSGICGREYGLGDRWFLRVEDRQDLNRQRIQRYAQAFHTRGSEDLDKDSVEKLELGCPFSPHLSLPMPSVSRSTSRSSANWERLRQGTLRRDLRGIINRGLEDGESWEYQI", "experiment": "45Ca2+ uptake by human CaT1 constant expression cells (CHO cells transfected with pMEHis-CaT1)", "assay_type": "cell-based", "conditions": "preincubated 4 hours; for amount of 45Ca2+ incorporated into the cells versus control: 3.0 mM, ANOVA, FIG. 28"}, "human CaT1 [2]": {"target": "T1, human CaT1", "experiment": "45Ca2+ uptake by human CaT1 constant expression cells (CHO cells transfected with pMEHis-CaT1)", "assay_type": "cell-based", "conditions": "for amount of 45Ca2+ incorporated, influence of metal ions: versus control, FIG. 14", "protocol": "That is, 1×10^5 cells/well of human CaT1 constant expression cells were cultured on a 24-well plate using a medium obtained by adding 10% FCS (fetal calf serum) was added to the above-mentioned DMEM/F12 medium at 37° C. for 5 days in a CO2 environment. After the medium was removed and the cells were washed with PBS buffer and HBSS buffer, to each well added was HBSS buffer containing 5.28 μM of ^45 Ca^2+, which was removed after a predetermined time (usually for 10 minutes excepting the case in which cultivation time is varied (time course is to be obtained)), the cells were solubilized with 1% triton (triton X-100), and then the cells were recovered. The amount of ^45Ca^2+ incorporated into the cells was measured using a liquid scintillation counter. As a control, CHO cells transfected with no human CaT1 gene were also subjected to the same operations to measure the amount of ^45Ca^2+ incorporated in the cells.\nOn the other hand, the effects of the metallic ion were examined by the same culture conditions and procedures as those in (4) except that 100 μM each of chloride salts La^3+, Gd^3+, Cd^2+, Co^2+, Fe^2+, Mn^2+, and Mg^2+ (10 mM for Mg2+ only) and 100 μM of choline chloride (Cho-Cl) were added to a HBSS buffer containing 5.28 μM of ^45Ca^2+.\nIn other words, in regards to a cultured human CaT1 constant expression cells evaluated by the same culture conditions and procedures as those in (4), a medium was displaced by a DMEM (—Ca) medium (Dulbecco's Modified Eagle Medium (cont.) Base Catalog No. 21068, manufactured by GIBCO™ Invitrogen Corporation: KCl 400.00 mg/l, NaCl 6400.00 mg/l, NaHCO3 3700.00 mg/l, NaH2PO4.H2O 125.00 mg/l, D-glucose 4500.00 mg/l, L-isoleucine 105.00 mg/l, L-leucine 105.00 mg/l, L-lysine.HCl 146.00 mg/l, L-tyrosin/2Na.2H2O 104.00mg/l) containing, as the food factor, 7% lactose (special grade reagents) 1% casein enzymatic degradation products, 1% guar gum hydrolysate, and soybean enzymatic degradation products (manufactured by Fuji oil Co., Ltd.), respectively, and the amount of ^45Ca^2+ incorporated into the cells was measured after preincubation for additional 4 hours.\nThe enzyme-treated sample obtained in (1) was dissolved in DMEM (—Ca) (the same as that used in Example 1(6)) so as to make a concentration of 1.0 (w/v)%. This was added to human CaT1 constant expression cells cultivated by the same culture conditions and the same procedures as those in Example 1(4) and CHO cells transfected with no human CaT1 gene, and these cells were preincubated for 4 hours. A medium contained 2.5% dialyzed (Spectra/POR MWCO:100) FCS and 2% L-glutamine solution.\nImmediately after completion of the pretreatement, the amount of ^45Ca^2+ incorporated into the cells was measured by the same technique as used in Example 1(4). On the other hand, the same procedure was followed without addition of the enzyme-treated samples as a control."}, "[3]": {"target": "human calcium transporter 1 (human CaT1) (human) (UniProt Q9H1D0)", "experiment": "cell-based or functional assay"}, "[4]": {"conditions": "100 μM chloride salt in HBSS buffer with 5.28 μM 45Ca2+"}}, "data": [{"molecule": "C[C@H](N)C(=O)O", "note": "[Ala]", "values": [{"measurement": "amount of 45Ca2+ incorporated into the cells versus control", "setting": "human CaT1 [1]", "value": "no significant increase"}]}, {"molecule": "[Cl][Cd][Cl]", "note": "[Cd^2+]", "values": [{"measurement": "amount of 45Ca2+ incorporated, influence of metal ions", "setting": "human CaT1 [2]; [4]", "value": "inhibit"}]}, {"molecule": "[Co+2]", "note": "[Co^2+]", "values": [{"measurement": "amount of 45Ca2+ incorporated, influence of metal ions", "setting": "human CaT1 [2]; [4]", "value": "inhibit"}]}, {"molecule": "[Fe+2]", "note": "[Fe^2+]", "values": [{"measurement": "amount of 45Ca2+ incorporated, influence of metal ions", "setting": "human CaT1 [2]; [4]", "value": "no significant difference"}]}, {"molecule": "[Gd+3]", "note": "[Gd^3+]", "values": [{"measurement": "amount of 45Ca2+ incorporated, influence of metal ions", "setting": "human CaT1 [2]; [4]", "value": "inhibit"}]}, {"molecule": "CC[C@H](C)[C@H](N)C(=O)O", "note": "[Ile]", "values": [{"measurement": "amount of 45Ca2+ incorporated into the cells versus control", "setting": "human CaT1 [1]", "value": "no significant increase"}]}, {"molecule": "[La+3]", "note": "[La^3+]", "values": [{"measurement": "amount of 45Ca2+ incorporated, influence of metal ions", "setting": "human CaT1 [2]; [4]", "value": "inhibit"}]}, {"molecule": "[Mg+2]", "note": "[Mg^2+]", "values": [{"measurement": "amount of 45Ca2+ incorporated, influence of metal ions", "setting": "human CaT1 [2]; 10 mM (Mg2+ only) in HBSS buffer with 5.28 μM 45Ca2+", "value": "no significant difference"}]}, {"molecule": "[Mn+2]", "note": "[Mn^2+]", "values": [{"measurement": "amount of 45Ca2+ incorporated, influence of metal ions", "setting": "human CaT1 [2]; [4]", "value": "no significant difference"}]}, {"molecule": "O=C(O)[C@@H]1CCCN1", "note": "[Pro]", "values": [{"measurement": "amount of 45Ca2+ incorporated into the cells versus control", "setting": "human CaT1 [1]", "value": "no significant increase"}]}, {"molecule": "OC[C@H]1O[C@@H](O[C@H]2[C@H](O)[C@@H](O)C(O)O[C@@H]2CO)[C@H](O)[C@@H](O)[C@H]1O", "note": "(some centres unmarked) [lactose]", "values": [{"measurement": "amount of 45Ca2+ incorporated into the cells, influence of food factor", "setting": "human CaT1 [2]; 7% in DMEM (-Ca) medium, preincubation 4 hours, FIG. 15", "value": "increased"}]}, {"molecule": "Ile-Pro-Ala (IPA) [synthetic peptide IPA]", "values": [{"measurement": "amounts of 45Ca2+ incorporated into the cells, influence of concentration", "setting": "human CaT1 [1]; 0, 0.25, 0.5, 1.0 mg/ml, FIG. 27", "value": "significantly increased depending on the concentration"}]}, {"molecule": "Ile-Pro-Ala [peak 1]", "values": [{"measurement": "amount of 45Ca2+ incorporated into the cells, HPLC peaks", "setting": "human CaT1 [1]; 0.5 mg/ml, ANOVA p<0.05 versus other peaks and control, FIG. 25", "value": "increased significantly"}]}, {"molecule": "Ile-Pro-Ile [IPI]", "values": [{"measurement": "amount of 45Ca2+ incorporated into the cells versus control", "setting": "human CaT1 [1]", "value": "no significant increase"}]}, {"molecule": "enzymatic degradation product of cheese whey (CWP-D)", "values": [{"measurement": "Km of Ca2+ uptake with CWP-D pretreatment (+CWP-D)", "setting": "[3]", "value": 19, "unit": "µM"}, {"measurement": "Vmax of Ca2+ uptake with CWP-D pretreatment (+CWP-D) (pmol/mg/10 min)", "setting": "[3]", "value": 1.06}, {"measurement": "amount of 45Ca2+ incorporated into human CaT1 constant expression cells (fold of control, 1.0 (w/v)% CWP-D, 4 h pretreatment)", "setting": "[3]", "value": 8, "unit": "times"}]}]}
